Test results: patent publication US20120130481A1, “LOCAL VASCULAR DELIVERY OF ADENOSINE A2A RECEPTOR AGONISTS IN COMBINATION WITH OTHER AGENTS TO REDUCE MYOCARDIAL INJURY” (priority 2010, published 2012)

Tests used:
[1] = tested on: platelet deposition and thrombus formation on the stent surface; test: In vitro bovine blood loop model (anti-thrombotic activity); details: FIG. 12, cilostazol in sirolimus/cilostazol coatings
Excerpt: The anti-thrombotic efficacy of the above-described three configurations is illustrated in FIG. 12. FIG. 12 illustrates the anti-thrombotic properties of the sirolimus/cilostazol combination coatings described above in an in vitro bovine blood loop model. In the in vitro bovine blood loop model, fresh bovine blood is heparinized to adjust for acute clotting time (ACT) of about two hundred (200) seconds. The platelet content in the blood is labeled through the use of Indium 111. In the study, a stent is deployed in a silicone tube, which is part of a closed loop system for blood circulation. The heparinzed blood is circulated through the closed loop system by means of a circulating pump. Activated platelets, fibrin and thrombus builds up on a stent surface over time and reduces the flow rate of blood through the stented loop. The flow is stopped when the flow rate is reduced to fifty (50) percent of the starting value or at ninety (90) minutes if none of the tested stent reduces the flow by fifty (50) percent. The total radioactivity (In 111) on the stent surface is counted by a […] and normalized with the control unit, set as one hundred (100) percent in the chart. […]

[2] = Porcine drug elution PK study of dual drug eluting coating (in vivo release); design: species or system pig; details: after eight (8) days of implantation, single layer configuration of FIG. 15 (FIG. 13)
Excerpt: Another critical parameter for the performance of the thrombus resistance of a device coated with cilostazol is the duration of the drug release from the coating. This is of particular significance in the two weeks after device implantation. In the porcine drug elution PK studies of the dual drug eluting coating, both cilostazol and sirolimus were slowly released from the coating, resulting in a sustained drug release profile. The purpose of the porcine PK study is to assess the local pharmacokinetics of a drug eluting stent at a given implantation time. Normally three stents are implanted in three different coronary arteries in a pig for a given time point and then retrieved for total drug recovery analysis. The stents are retrieved at predetermined time points; namely, 1, 3 and 8 days. The stents are extracted and the total amount of drug remaining on the stents is determined by analysis utilizing HPLC (high performance liquid chromatography) for total drug amount. The difference between the original amount of drug on the stent and the amount of drug retrieved at a given time represents the amount of drug released in that period. The continuous release of drug into surrounding arterial tissue is what prevents the neointimal growth and restenosis in the coronary artery. A normal plot represents the percentage of total drug released (%, y-axis) vs. time of implantation (day, x-axis). […]

[3] = In vitro release kinetics of sirolimus/cilostazol stent coatings; assay type: physicochemical
[4] = In vivo release kinetics from dual drug reservoir stent, porcine coronary artery model; details: at thirty (30) days, 3.5×17 mm reservoir stent, PLGA75/25, in vivo (FIG. 18)
Excerpt: FIG. 18 graphically illustrates the release kinetic curves for sirolimus 1902 and cilostazol 1904 over a period of thirty (30) days from an in vivo release kinetics study. As illustrated, the release kinetics are similar for both drugs with approximately seventy (70) percent of both drugs being released from the stent at thirty (30) days (sirolimus being a little higher than the cilostazol). A 3.5×17 mm stent with reservoirs was utilized in the study. Each drug was placed individually in a reservoir to create an alternating pattern. The basic construct of each reservoir fill was a base (luminal side of the stent) comprising only polymer (PLGA75/25) and no drug, a drug matrix either comprising 120.4 micro grams of cilostazol and 197.1 micro grams of polymer (PLGA75/25) or 146.9 micro grams of sirolimus and 175.0 micro grams of polymer (PLGA75/25), and a cap comprising only polymer (PLGA75/25). The stent was placed in a standard porcine coronary artery model to evaluate the in vivo release kinetics and tissue concentration of both drugs released from the stent over time.

[5] = cited from earlier work

Structure (SMILES) | thrombus formation [1] | drug remained in the drug coating [2] [%] | drug release rate, 200 µg vs 100 µg BMA diffusion overcoat ([3]; configuration of FIG. 7 (200 µg BMA) compared with FIG. 9 (100 µg BMA), FIGS. 8 and 10) | in vitro release rate compared to the dual drug base coating ([3]; configuration of FIG. 7 vs FIG. 15) | in vitro release ([3]; single layer configuration of FIG. 15 (FIG. 14)) [%] | drug released from the stent [4] [%] | solubility in water [5]
O=C1CCc2cc(OCCCCc3nnnn3C3CCCCC3)ccc2N1 [cilostazol, 6[4-(1-cyclohexyl-1H-tetrazol-5-yl)-butoxy]-3,4-dihydro-2-(1H)-quinolinone] | significantly reduces thrombus formation | ~80 | comparatively slower | much faster rate | ~35 | ~70 | relatively low solubility in water
CO[C@H]1C[C@@H]2CC[C@@H](C)[C@@](O)(O2)C(=O)C(=O)N2CCCC[C@H]2C(=O)O[C@H]([C@H](C)C[C@@H]2CC[C@@H](O)[C@H](OC)C2)CC(=O)[C@H](C)/C=C(\C)[C@@H](O)[C@@H](OC)C(=O)[C@H](C)C[C@H](C)/C=C/C=C/C=C/1C [sirolimus] |  | ~80 |  |  |  | ~70 | 
